US20180050993A1, “NOVEL FLUORINATED DERIVATIVES AS EGFR INHIBITORS USEFUL FOR TREATING CANCERS” (Trillium Therapeutics Inc., priority 2015, published 2018)
Where a name gives a salt, the structure may show the parent alone. Read-outs that look alike come from different tables or passages of the source.

How the values were obtained:
EGFR (L858R, T790M) = biological target: T1, EGFR (L858R, T790M) (Homo sapiens, UniProt P00533, L858R/T790M); test: Kinase HotSpot profiling (Reaction Biology), 33P-ATP filter-binding; type: biochemical; details: mutant EGFR L858R
T1 construct: purchased Reaction Biology
T1 sequence (P00533 25-1210 T790M/L858R): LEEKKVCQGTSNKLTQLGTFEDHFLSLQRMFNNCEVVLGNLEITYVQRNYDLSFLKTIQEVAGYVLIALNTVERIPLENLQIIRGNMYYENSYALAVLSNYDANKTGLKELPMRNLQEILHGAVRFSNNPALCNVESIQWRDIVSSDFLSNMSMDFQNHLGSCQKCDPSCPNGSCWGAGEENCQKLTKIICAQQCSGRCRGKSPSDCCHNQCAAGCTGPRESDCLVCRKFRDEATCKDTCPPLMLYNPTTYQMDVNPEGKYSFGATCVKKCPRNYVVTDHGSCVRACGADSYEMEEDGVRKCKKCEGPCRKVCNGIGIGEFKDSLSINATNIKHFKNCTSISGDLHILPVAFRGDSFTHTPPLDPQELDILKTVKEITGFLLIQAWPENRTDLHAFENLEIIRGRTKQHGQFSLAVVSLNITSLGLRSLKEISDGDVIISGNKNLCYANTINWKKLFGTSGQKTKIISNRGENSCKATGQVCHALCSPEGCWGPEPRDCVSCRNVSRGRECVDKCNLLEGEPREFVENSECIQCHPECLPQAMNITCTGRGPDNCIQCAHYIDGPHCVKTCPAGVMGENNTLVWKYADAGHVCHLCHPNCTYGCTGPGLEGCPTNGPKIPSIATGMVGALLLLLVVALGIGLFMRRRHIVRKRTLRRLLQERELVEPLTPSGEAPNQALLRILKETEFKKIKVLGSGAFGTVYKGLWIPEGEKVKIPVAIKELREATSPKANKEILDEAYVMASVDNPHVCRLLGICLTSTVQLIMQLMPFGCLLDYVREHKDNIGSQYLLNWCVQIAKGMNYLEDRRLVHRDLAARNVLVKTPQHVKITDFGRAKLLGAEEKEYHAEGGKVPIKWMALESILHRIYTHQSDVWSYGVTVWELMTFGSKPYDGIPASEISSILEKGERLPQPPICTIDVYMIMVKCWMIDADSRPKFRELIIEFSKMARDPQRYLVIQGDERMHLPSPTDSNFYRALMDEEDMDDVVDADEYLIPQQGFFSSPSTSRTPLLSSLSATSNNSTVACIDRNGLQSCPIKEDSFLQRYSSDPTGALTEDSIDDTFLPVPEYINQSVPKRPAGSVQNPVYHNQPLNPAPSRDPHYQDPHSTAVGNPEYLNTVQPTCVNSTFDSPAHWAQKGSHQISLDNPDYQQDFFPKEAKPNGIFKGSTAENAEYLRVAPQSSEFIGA
Experimental: (§1) Base Reaction buffer; 20 mM Hepes (pH 7.5), 10 mM MgCl2, 1 mM EGTA, 0.02% Brij35, 0.02 mg/ml BSA, 0.1 mM Na3VO4, 2 mM DTT, 1% DMSO
(§2) *Required cofactors are added individually to each kinase reaction
(§3) 1. The indicated substrate was prepared in fresh Base Reaction Buffer.
(§4) 2. Any required cofactors were added to the substrate solution above.
(§5) 3. Indicated kinase was added into the substrate solution and gently mixed.
(§6) 4. Compounds in DMSO were added into the kinase reaction mixture by Acoustic technology (Echo550; nanoliter range) and incubated for 20 minutes at room temperature.
(§7) 5. 33P-ATP (specific activity 10 μCi/μl) was added into the reaction mixture to initiate the reaction.
(§8) 6. The kinase reaction was incubated for 2 hours at room temperature
(§9) 7. Reactions were spotted onto P81 ion exchange paper.
(§10) 8. Kinase activity was detected by filter-binding method.
(§11) Representative compounds of Formula I were evaluated against WT EGFR and mutant EGFR (L858R and L858R, T790M) kinases. IC50 concentrations are illustrated in Table 9.

EGFR (L858R) = biological target: T2, EGFR (L858R) (Homo sapiens, UniProt P00533, L858R); test: as above; type: biochemical; details: mutant EGFR L858R
T2 construct: purchased Reaction Biology
T2 sequence (P00533 25-1210 L858R): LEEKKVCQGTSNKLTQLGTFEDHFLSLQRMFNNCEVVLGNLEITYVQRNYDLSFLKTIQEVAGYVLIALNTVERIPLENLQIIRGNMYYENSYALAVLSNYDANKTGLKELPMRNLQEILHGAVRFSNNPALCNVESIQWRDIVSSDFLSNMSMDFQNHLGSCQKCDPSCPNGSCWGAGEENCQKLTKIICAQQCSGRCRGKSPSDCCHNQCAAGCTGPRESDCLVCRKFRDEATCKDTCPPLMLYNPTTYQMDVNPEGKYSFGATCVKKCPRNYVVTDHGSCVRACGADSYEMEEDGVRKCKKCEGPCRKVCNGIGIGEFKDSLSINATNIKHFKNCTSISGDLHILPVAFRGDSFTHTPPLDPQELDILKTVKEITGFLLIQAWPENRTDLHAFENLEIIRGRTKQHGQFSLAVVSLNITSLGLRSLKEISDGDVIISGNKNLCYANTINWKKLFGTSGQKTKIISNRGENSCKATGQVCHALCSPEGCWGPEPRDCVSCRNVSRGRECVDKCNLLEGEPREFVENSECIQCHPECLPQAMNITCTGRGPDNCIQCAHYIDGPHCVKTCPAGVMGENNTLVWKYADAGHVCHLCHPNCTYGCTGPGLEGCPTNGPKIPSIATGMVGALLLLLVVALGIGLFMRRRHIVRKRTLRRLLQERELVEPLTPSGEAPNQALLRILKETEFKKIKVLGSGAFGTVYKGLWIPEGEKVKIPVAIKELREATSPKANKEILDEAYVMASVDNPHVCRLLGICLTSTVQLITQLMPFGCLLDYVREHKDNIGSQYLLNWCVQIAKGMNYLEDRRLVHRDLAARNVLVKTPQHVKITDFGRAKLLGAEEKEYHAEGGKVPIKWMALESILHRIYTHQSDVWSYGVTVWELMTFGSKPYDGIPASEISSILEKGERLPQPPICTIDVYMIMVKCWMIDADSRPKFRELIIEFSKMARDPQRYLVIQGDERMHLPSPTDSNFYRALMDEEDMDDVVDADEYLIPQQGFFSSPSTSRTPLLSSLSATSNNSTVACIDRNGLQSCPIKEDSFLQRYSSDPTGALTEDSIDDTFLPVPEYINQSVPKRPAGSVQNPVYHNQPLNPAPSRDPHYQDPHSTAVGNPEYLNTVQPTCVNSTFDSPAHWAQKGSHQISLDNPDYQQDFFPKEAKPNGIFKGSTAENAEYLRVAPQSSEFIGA
Experimental: as §1, §2, §3, §4, §5, §6, §7, §8, §9, §10, §11

EGFR = biological target: T3, EGFR (Homo sapiens, UniProt P00533); test: as above; type: biochemical; details: WT EGFR
T3 construct: purchased Reaction Biology
T3 sequence (P00533 25-1210): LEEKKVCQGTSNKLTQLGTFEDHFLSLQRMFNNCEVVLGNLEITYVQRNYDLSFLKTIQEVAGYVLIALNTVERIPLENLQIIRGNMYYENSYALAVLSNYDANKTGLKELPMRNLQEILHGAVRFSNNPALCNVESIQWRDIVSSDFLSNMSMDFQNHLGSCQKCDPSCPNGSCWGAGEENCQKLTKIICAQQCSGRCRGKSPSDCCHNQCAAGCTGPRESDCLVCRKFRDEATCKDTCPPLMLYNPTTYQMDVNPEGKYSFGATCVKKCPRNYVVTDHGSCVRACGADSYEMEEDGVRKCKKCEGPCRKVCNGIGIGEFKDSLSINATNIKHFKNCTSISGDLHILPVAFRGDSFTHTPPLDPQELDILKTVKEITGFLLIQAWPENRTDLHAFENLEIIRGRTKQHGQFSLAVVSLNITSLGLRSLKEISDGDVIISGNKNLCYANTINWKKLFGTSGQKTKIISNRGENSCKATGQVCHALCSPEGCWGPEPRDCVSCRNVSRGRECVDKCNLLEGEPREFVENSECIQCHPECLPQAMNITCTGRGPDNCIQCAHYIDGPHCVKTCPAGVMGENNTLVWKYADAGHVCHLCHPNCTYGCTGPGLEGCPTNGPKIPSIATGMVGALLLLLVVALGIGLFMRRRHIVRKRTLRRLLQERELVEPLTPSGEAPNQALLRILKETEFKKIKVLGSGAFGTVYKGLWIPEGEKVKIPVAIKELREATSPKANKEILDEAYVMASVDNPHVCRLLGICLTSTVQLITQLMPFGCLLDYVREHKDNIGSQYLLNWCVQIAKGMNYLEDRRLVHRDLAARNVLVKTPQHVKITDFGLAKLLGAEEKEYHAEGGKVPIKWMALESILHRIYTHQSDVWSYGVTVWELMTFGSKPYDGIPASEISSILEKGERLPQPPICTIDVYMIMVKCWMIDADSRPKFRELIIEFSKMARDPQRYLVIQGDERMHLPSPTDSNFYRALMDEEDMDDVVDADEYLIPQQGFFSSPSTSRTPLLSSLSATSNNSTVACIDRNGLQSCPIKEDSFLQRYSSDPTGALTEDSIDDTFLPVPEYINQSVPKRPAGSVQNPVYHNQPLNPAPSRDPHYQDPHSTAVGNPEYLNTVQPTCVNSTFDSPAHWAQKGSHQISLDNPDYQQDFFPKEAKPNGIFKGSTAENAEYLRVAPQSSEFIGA
Experimental: as §1, §2, §3, §4, §5, §6, §7, §8, §9, §10, §11

[1] = Brain and plasma concentrations after oral gavage in rat, sampling to 4 hours (Table 4); type: in vivo; details: Table 4 (4 hours); for AUClast / Cmax / Tmax: brain tissue, PO 50 mg/kg; for Cmax / Tmax / Kp at 4 h: male, Sprague-Dawley (SD); for Kp at 4 h: brain/plasma, po, 50 mg/kg
[2] = Mouse liver microsomal stability; type: in vitro ADME; details: stability in pooled mouse (CD-1, male) liver microsomes 0.5 mg/ml, compound 1 μM, parent compound by LC/MS, in % (unit assumed)
Experimental: (§12) Working stocks were initially diluted to a concentration of 40.0 μM in 0.1 M potassium phosphate buffer before addition to the reaction vials. Pooled mouse (CD-1, male) or human (50 donors) liver microsomes were utilized at a final concentration of 0.5 mg/ml. Duplicate wells were used for each time point (0 and 30 minutes). Reactions were carried out at 37° C. in a shaker, and the final concentration of DMSO was kept constant at 0.01%. The final volume for each reaction was 100 μL, which includes the addition of an NADPH-Regeneration solution (NRS) mix. This NRS mix is comprised of glucose 6-phosphate dehydrogenase (0.4 U/mL), NADP+ (1.3 mM), MgCl2 (3.3 mM), and glucose 6-phosphate (3.3 mM) in assay mixtures. Upon completion of the 30 minute time point, reactions were terminated by the addition of 1.5-volumes (150 μL) of ice-cold, acetonitrile with 0.5% formic acid and internal standard. Samples were then centrifuged at 4,000 rpm for 10 minutes to remove debris and precipitated protein. Approximately 150 μL of supernatant was subsequently transferred to a new 96 well microplate for LC/MS analysis.
(§13) Narrow-window mass extraction LC/MS analysis was performed for all samples using a Waters Xevo quadrupole time-of-flight (QTof) mass spectrometer and an ACQUITY UPLC system, to determine relative peak areas of parent compound.
(§14) Human and mouse liver microsomes contain a wide variety of drug metabolizing enzymes and are commonly used to support in vitro ADME (absorption, distribution, metabolism and excretion) studies. These microsomes are used to examine the potential first-pass metabolism by-products of orally administered drugs. Representative compounds of the application were evaluated for their stability in human and mouse liver microsomes.

[3] = Human liver microsomal stability; type: in vitro ADME; details: stability in pooled human (50 donors) liver microsomes 0.5 mg/ml, compound 1 μM, parent compound by LC/MS
Experimental: as §12, §13, §14

EGFR(L747-T751del, Sins) = test: Kinome screen at 300 nM (qPCR competition binding)
P-gp = biological target: T4, P-gp (Homo sapiens, UniProt P08183); test: Evaluation of P-gp efflux in Caco-2 cell monolayers; type: in vitro ADME;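 also: Caco-2 monolayers dosed apically or basolaterally with test compound at 5 µM in HBSS with HEPES and glucose, 37 °C, donor and receiver sampled after 120 min, LC/MS peak areas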
T4 construct: host or cells: Caco-2 (C2BBe1)
T4 sequence (P08183 whole entry): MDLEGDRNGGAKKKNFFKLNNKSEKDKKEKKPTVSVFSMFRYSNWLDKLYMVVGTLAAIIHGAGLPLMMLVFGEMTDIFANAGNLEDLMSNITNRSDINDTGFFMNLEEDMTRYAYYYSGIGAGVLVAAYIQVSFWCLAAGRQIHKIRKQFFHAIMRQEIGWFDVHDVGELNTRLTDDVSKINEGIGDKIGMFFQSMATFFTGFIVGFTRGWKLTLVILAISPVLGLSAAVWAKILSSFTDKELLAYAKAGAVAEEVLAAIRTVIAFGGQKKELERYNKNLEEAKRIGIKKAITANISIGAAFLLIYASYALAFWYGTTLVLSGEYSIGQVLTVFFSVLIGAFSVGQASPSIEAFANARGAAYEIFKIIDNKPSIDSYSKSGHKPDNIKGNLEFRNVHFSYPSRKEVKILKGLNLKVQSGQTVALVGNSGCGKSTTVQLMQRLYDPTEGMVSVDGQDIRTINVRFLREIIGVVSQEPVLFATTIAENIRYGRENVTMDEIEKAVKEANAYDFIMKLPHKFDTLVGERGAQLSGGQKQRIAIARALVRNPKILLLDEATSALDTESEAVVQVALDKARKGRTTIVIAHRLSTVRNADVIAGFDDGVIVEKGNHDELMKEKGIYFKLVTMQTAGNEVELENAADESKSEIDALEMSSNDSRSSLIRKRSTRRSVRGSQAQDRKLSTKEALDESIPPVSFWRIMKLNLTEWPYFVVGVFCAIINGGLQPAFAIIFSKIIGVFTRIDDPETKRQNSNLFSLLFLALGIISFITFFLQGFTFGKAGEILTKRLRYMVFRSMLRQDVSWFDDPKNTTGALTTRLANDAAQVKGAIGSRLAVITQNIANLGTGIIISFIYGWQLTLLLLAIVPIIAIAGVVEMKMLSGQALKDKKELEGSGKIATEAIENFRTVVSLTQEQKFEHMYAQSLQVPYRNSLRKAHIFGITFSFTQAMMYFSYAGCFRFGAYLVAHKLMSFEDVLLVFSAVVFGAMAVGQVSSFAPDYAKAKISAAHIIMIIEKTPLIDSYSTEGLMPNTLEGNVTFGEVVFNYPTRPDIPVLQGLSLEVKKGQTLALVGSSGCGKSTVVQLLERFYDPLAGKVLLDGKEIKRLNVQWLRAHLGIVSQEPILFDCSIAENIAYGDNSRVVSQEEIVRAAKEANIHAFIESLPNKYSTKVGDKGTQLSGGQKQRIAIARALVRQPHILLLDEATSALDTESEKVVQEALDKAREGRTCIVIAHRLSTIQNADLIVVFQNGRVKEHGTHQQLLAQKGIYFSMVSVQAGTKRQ

HCC827 = test: Comparison with 1st generation inhibitors against a lung cancer cell line (HCC827); type: cell-based; details: Homo sapiens, read-out: Biochemical IC50
[4] = Brain concentrations after PO administration in rat, peak at 8 hours (Table 5); type: in vivo; details: Table 5 (8 hours); for Kp at 8 h: brain/plasma, po, 50 mg/kg
EPHA6 [5] = biological target: T5, EPHA6 (Homo sapiens, UniProt Q9UF33); test: Binding constants (Kd) for EPHA6, kinase competition binding with qPCR readout
T5 sequence (Q9UF33 23-1036): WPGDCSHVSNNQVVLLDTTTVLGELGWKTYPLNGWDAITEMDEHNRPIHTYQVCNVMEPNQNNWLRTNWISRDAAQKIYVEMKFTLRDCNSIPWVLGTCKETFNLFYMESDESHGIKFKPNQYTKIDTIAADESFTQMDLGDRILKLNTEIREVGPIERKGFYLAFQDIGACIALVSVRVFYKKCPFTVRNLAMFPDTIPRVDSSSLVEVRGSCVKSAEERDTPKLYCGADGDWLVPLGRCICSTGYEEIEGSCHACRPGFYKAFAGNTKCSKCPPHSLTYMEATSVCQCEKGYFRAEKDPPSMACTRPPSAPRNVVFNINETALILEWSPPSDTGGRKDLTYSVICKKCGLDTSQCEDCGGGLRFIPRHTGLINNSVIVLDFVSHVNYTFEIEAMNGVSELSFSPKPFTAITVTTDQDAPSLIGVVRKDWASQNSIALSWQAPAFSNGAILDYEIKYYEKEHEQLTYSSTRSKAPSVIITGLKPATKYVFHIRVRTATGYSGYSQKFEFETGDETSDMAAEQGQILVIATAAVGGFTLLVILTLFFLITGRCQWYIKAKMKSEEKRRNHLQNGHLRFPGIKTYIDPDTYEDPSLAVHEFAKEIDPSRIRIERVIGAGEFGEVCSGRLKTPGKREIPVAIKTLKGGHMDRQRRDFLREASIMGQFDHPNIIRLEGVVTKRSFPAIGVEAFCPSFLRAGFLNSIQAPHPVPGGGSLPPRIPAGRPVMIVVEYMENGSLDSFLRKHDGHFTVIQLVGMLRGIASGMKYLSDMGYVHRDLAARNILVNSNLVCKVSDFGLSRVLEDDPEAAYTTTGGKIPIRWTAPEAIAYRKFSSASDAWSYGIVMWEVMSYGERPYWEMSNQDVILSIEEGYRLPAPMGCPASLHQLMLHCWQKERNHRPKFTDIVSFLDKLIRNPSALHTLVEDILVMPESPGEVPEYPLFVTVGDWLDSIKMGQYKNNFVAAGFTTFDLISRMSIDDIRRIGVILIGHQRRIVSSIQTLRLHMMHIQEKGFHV

EPHA6 [6] = biological target: T5, EPHA6; test: Kinome screen at 300 nM (qPCR competition binding); set-up: purchased DiscoveRx; host or cells: E. coli BL21-derived (T7 phage) or HEK-293; details: result in words
[7] = Sprague-Dawley, brain, PO 50 mg/kg

COc1cc2ncnc(Nc3ccc(F)c(Cl)c3F)c2cc1OC(=O)N1CC[C@@H](COC(F)F)C1 [2(Qq), [4-(3-chloro-2,4-difluoro-anilino)-7-methoxy-quinazolin-6-yl] (3R)-3-(difluoromethoxymethyl)pyrrolidine-1-carboxylate]
IC50 (EGFR (L858R, T790M)): 6820 nM
IC50 (EGFR (L858R)): 0.0164 nM
IC50 (EGFR): 0.0138 nM

C#Cc1cccc(Nc2ncnc3cc(OCCOC)c(OCCOC)cc23)c1 [Erlotinib, N-(3-ethynylphenyl)-6,7-bis(2-methoxyethoxy)quinazolin-4-amine, reference compound]
AUClast [1]: 4319 ng·h/g
Cmax [1]: 1710 ng/g
Tmax [1]: 4 h
MLM (30 min) [2]: 56.3
HLM (30 min) [3]: 75.5%
% Control @ 300 nM (EGFR(L747-T751del, Sins)): 0.12%

COc1cc2ncnc(Nc3ccc(F)c(Cl)c3F)c2cc1OCCCN1CCC(OC(F)F)CC1 [2(q), N-(3-chloro-2,4-difluoro-phenyl)-6-[3-[4-(difluoromethoxy)-1-piperidyl]propoxy]-7-methoxy-quinazolin-4-amine]
IC50 (EGFR (L858R, T790M)): 4010 nM
IC50 (EGFR (L858R)): 0.0142 nM
IC50 (EGFR): 0.0434 nM

Fc1c(Nc2ncnc3cc(OCCOC(F)F)c(OCCOC(F)F)cc23)ccc(Cl)c1Cl [Compound 2A•HCl, N-(3,4-dichloro-2-fluoro-phenyl)-6,7-bis[2 (difluoromethoxy)ethoxy]quinazolin-4-amine]
recovery at 120 min, 5 μM (P-gp; Caco-2, pH 7.4, with none (verapamil 0 μM), Caco-2, Verapamil 0 μM, read-out: Recovery (%) AP-BL): 43.4%
recovery at 120 min, 5 μM (P-gp; Caco-2, pH 7.4, with none (verapamil 0 μM), Caco-2, Verapamil 0 μM, read-out: Recovery (%) BL-AP): 57.1%
recovery at 120 min, 5 μM (P-gp; Caco-2, pH 7.4, with verapamil 100 μM, Caco-2, Verapamil 100 μM, read-out: Recovery (%) AP-BL): 55.5%
recovery at 120 min, 5 μM (P-gp; Caco-2, pH 7.4, with verapamil 100 μM, Caco-2, Verapamil 100 μM, read-out: Recovery (%) BL-AP): 83.2%
Papp A→B at 120 min, 5 μM (P-gp; pH 7.4, Caco-2, Verapamil 0 μM): 0.58 ×10⁻⁶ cm/s
Papp B→A at 120 min, 5 μM (P-gp; pH 7.4, Caco-2, Verapamil 0 μM): 0.35 ×10⁻⁶ cm/s
efflux ratio at 120 min, 5 µM (P-gp; pH 7.4, Caco-2, Verapamil 0 μM): 0.59
IC50 (HCC827): 21 nM
Cmax [4, 7]: 5610 ng/g
Tmax [4, 7]: 8 h
Kp at 8 h ([4]; Sprague-Dawley, read-out: AUCLast Ratio (Brain/Plasma)): 1.5
Kp at 8 h ([4]; Sprague-Dawley, read-out: Cmax Ratio (Brain/Plasma)): 1.72
AUCInf ([4]; brain, PO 50 mg/kg): 102348 ng·h/g
AUClast ([4]; brain, PO 50 mg/kg): 101853 ng·h/g
AUClast [1]: 22593 ng·h/g
Cmax [1]: 6980 ng/g
Tmax [1]: 4 h
Kp at 4 h ([1]; read-out: AUCLast Ratio (Brain/Plasma)): 1.69
Kp at 4 h ([1]; read-out: Cmax Ratio (Brain/Plasma)): 1.81
MLM (30 min) ([2]; listed as 2(a)•HCl): 91.7
Kd (EPHA6 [5]): 9.1 nM
HLM (30 min) ([3]; listed as 2(a)•HCl): 97.4%
selectivity over erlotinib for the ephrin receptor kinase, EPHA6 (EPHA6 [6]): did show selectivity over erlotinib
